Measurements from the NIST ThermoML archive (doi:10.1021/je060271a).

Settings: 323.15 K, Liquid, Vibrating tube method

CCCCCC(=O)OCC(COC(=O)CCCCC)(COC(=O)CCCCC)COC(=O)CCCCC [pentaerythritol tetrahexanoate]
Settings	mass density [kg/m3]
1417.8 kPa	973.7
1423 kPa	973.6
1428.2 kPa	973.6
1434.7 kPa	973.7
1469.9 kPa	973.8
1475.5 kPa	973.7
1482.4 kPa	973.8
1487.6 kPa	973.7
1494.2 kPa	973.8
1505.5 kPa	973.8
1510.7 kPa	973.7
1517 kPa	973.8
1522.7 kPa	973.9
1529.6 kPa	973.7
1536.8 kPa	973.7
1600 kPa	973.8
1606.9 kPa	973.8
1612.8 kPa	973.9
1619 kPa	973.7
1626.3 kPa	973.9
1632.1 kPa	973.7
1639.4 kPa	973.9
1645.6 kPa	973.8
1653.1 kPa	973.9
1660 kPa	973.9
1667 kPa	973.8
1674.8 kPa	973.9
1682.8 kPa	973.8
1689 kPa	973.9
1695.8 kPa	973.9
1703.9 kPa	974
1710.5 kPa	973.9
1718.3 kPa	974
1725.1 kPa	973.9
1732.7 kPa	973.7
1739.2 kPa	973.8
1747.3 kPa	973.9
1753.9 kPa	973.9
1761.9 kPa	974
1770.6 kPa	973.9
1777.5 kPa	974
1896.8 kPa	974
1906.3 kPa	974
1914.3 kPa	974.1
1923.6 kPa	973.9
1931.8 kPa	974
1940.3 kPa	974
1947.8 kPa	974
1956.8 kPa	974.1
1966 kPa	974
1973.3 kPa	974
1981.3 kPa	974.1
1990.8 kPa	974.2
2115.6 kPa	974
2124.4 kPa	974.1
2134.6 kPa	974.2
2174 kPa	974.2
2184.9 kPa	974.2
2193.8 kPa	974.2
2203.2 kPa	974.3
2214.3 kPa	974.2
2223.5 kPa	974.3
2234.2 kPa	974.3
2245.5 kPa	974.4
2255 kPa	974.4
2264.6 kPa	974.2
2495.1 kPa	974.6
2505.3 kPa	974.6
2517.8 kPa	974.5
2528.6 kPa	974.4
2541.1 kPa	974.5
2553.7 kPa	974.6
2564.1 kPa	974.4
2574.7 kPa	974.3
2587.7 kPa	974.5
2599.7 kPa	974.4
2609.9 kPa	974.6
2622.2 kPa	974.5
2632.1 kPa	974.6
2642.3 kPa	974.5
2654.5 kPa	974.6
2664.9 kPa	974.6
2676.8 kPa	974.6
2689.2 kPa	974.6
2699.9 kPa	974.4
2710 kPa	974.6
2722.3 kPa	974.6
2732.8 kPa	974.6
2745.2 kPa	974.6
2758 kPa	974.5
2768.6 kPa	974.7
2779.1 kPa	974.7
2791.8 kPa	974.6
2801.9 kPa	974.7
2814.5 kPa	974.7
2827.5 kPa	974.6
2837.8 kPa	974.7
2849 kPa	974.6
2862 kPa	974.6
2872.9 kPa	974.7
2885.9 kPa	974.7
2910.2 kPa	974.8
2921.8 kPa	974.6
2946.6 kPa	974.8
2960 kPa	974.8
3369.6 kPa	975.1
3401.3 kPa	975.1
3416.4 kPa	975.1
3430.9 kPa	975.1
3448.4 kPa	975.1
3481 kPa	975.1
3512.7 kPa	975.1
3527.3 kPa	975.1
3544.2 kPa	975.1
3557.7 kPa	975.2
3574.4 kPa	975.2
3588.4 kPa	975.2
3605 kPa	975.1
3619.2 kPa	975.1
3805.2 kPa	975.3
3820 kPa	975.3
3837.5 kPa	975.4
3851.8 kPa	975.4
3869.3 kPa	975.5
3886.8 kPa	975.5
3901.9 kPa	975.4
3917 kPa	975.4
3935.3 kPa	975.5
3950.4 kPa	975.4
3968.8 kPa	975.5
3984.3 kPa	975.5
4002.9 kPa	975.4
4018.6 kPa	975.5
4034.4 kPa	975.4
4138.3 kPa	975.6
4157.9 kPa	975.5
4209.5 kPa	975.6
4228.7 kPa	975.6
4245.5 kPa	975.7
4265.2 kPa	975.6
4281.8 kPa	975.7
4301.8 kPa	975.7
4319.1 kPa	975.8
4339.5 kPa	975.8
